Data reported in US20260234123A1, “Inhibitors of NLRP3” (Mwyngil Therapeutics, Inc., priority 2023, published 2026).
pEC50: −log10 of the molar value.

test system: IL1b release THP-1; assay: IL1b release THP-1 (ELISA); type: cell-based; settings: Homo sapiens; average EC50; THP-1 cells primed with 1 μg/ml LPS 4 h, stimulated with 10 μM Nigericin 2 h; IL-1β in supernatant by ELISA; read-out: THP 1 IL 1b, EC50
Summary of the method: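 THP-1 cells in serum-free medium were primed with 1 μg/ml LPS for 4 h, then stimulated with 10 μM nigericin for 2 h at 37° C., 5% CO2. IL-1β in supernatant measured by ELISA; EC50 values binned into A–E ranges.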

Compound	pEC50
Cc1cc(-c2ccc(C(F)(F)F)c(N)c2N)nnc1N[C@@H]1CCCN(C)C1 [Compound 103, 3-[5-methyl-6-[[(3R)-1-methyl-3-piperidyl]amino]pyridazin-3-yl]-6-(trifluoromethyl)benzene-1,2-diamine]	4.52 to 5.30
Cc1cc(N[C@@H]2CCCN(C(C)C)C2)nnc1-c1ccc(C(F)(F)F)cc1N [Compound 110, (R)-6-(2-Amino-4-(trifluoromethyl)phenyl)-N-(1-isopropylpiperidin-3-yl)-5-methyl pyridazin-3-amine]	> 6.30
Cc1cc(N[C@@H]2CCCN(C(C)C)C2)nnc1-c1ccc(C(F)(F)F)cc1NC(C)C [Compound 111, 6-[2-(isopropylamino)-4-(trifluoromethyl)phenyl]-N-[(3R)-1-isopropyl-3-piperidyl]-5-methyl-pyridazin-3-amine]	> 6.30
Cc1cc(N[C@@H]2CCCN(C(C)C)C2)nnc1-c1ccc(C(F)(F)F)cc1NC(=O)C(F)F [Compound 113]	> 6.30
CCNc1cc(C(F)(F)F)ccc1-c1cc(C)c(N[C@@H]2CCCN(C(C)C)C2)nn1 [Compound 114, 6-[2-(ethylamino)-4-(trifluoromethyl)phenyl]-N-[(3R)-1-isopropyl-3-piperidyl]-4-methyl-pyridazin-3-amine]	> 6.30
Cc1cc(N[C@@H]2CCCN(C(C)C)C2)nnc1-c1ccc(C(F)(F)F)cc1NC(=O)C(F)(F)F [Compound 117, (R)-2,2,2-Trifluoro-N-(2-(6-((1-isopropylpiperidin-3-yl)amino)-4-methylpyridazin-3-yl)-5-(trifluoromethyl)phenyl) acetamide]	> 6.30
Cc1cc(-c2ccc(C(F)(F)F)cc2Nc2ccccc2)nnc1N[C@@H]1CCCN(C(C)C)C1 [Compound 121, 6-[2-anilino-4-(trifluoromethyl)phenyl]-N-[(3R)-1-isopropyl-3-piperidyl]-4-methyl-pyridazin-3-amine]	6.00 to 6.30
Cc1cc(N[C@@H]2CCCN(C(C)C)C2)nnc1-c1ccc(C(F)(F)F)cc1NC(F)(F)F [Compound 122, N-[(3R)-1-isopropyl-3-piperidyl]-5-methyl-6-[4-(trifluoromethyl)-2-(trifluoromethylamino)phenyl]-pyridazin-3-amine]	6.00 to 6.30
Cc1cc(-c2ccc(C(F)(F)F)cc2NC(=O)C(F)(F)C(F)(F)F)nnc1N[C@@H]1CCCN(C(C)C)C1 [Compound 125, 2,2,3,3,3-pentafluoro-N-[2-[6-[[(3R)-1-isopropyl-3-piperidyl]amino]-5-methyl-pyridazin-3-yl]-5-(trifluoromethyl)phenyl]propanamide]	5.30 to 6.00
CCN1CCC[C@@H](Nc2cc(C)c(-c3ccc(C(F)(F)F)cc3N)nn2)C1 [Compound 130, (R)-6-(2-Amino-4-(trifluoromethyl)phenyl)-N-(1-ethylpiperidin-3-yl)-5-methylpyridazin-3-amine]	> 6.30
CCN1CCC[C@@H](Nc2nnc(-c3ccc(C(F)(F)F)cc3NC(C)=O)cc2C)C1 [Compound 133, N-[2-[6-[[(3R)-1-ethyl-3-piperidyl]amino]-5-methyl-pyridazin-3-yl]-5-(trifluoromethyl)phenyl]acetamide]	6.00 to 6.30
CCN1CCC[C@@H](Nc2cc(C)c(-c3ccc(C(F)(F)F)cc3NC(C)=O)nn2)C1 [Compound 134, (R)—N-(2-(6-((1-ethylpiperidin-3-yl)amino)-4-methylpyridazin-3-yl)-5-(trifluoromethyl)phenyl) acetamide]	6.00 to 6.30
Cc1cc(-c2ccc(C(F)(F)F)cc2NC(=O)C(C)(C)C)nnc1N[C@@H]1CCCN(C(C)C)C1 [Compound 135, N-[2-[6-[[(3R)-1-isopropyl-3-piperidyl]amino]-5-methyl-pyridazin-3-yl]-5-(trifluoromethyl)phenyl]-2,2-dimethyl-propanamide]	6.00 to 6.30
CC(=O)Nc1cc(C(F)(F)F)ccc1-c1nnc(N[C@@H]2CCCN(C(C)C)C2)cc1C [Compound 136, N-[2-[6-[[(3R)-1-isopropyl-3-piperidyl]amino]-4-methyl-pyridazin-3-yl]-5-(trifluoromethyl)phenyl]acetamide]	6.00 to 6.30

Second part, the molecule after the results:

pEC50	Compound
> 6.30	CNc1cc(C(F)(F)F)ccc1-c1nnc(N[C@@H]2CCCN(C(C)C)C2)cc1C [Compound 108, N-[(3R)-1-isopropyl-3-piperidyl]-5-methyl-6-[2-(methylamino)-4-(trifluoromethyl)phenyl]pyridazin-3-amine]
> 6.30	CCNc1cc(C(F)(F)F)ccc1-c1nnc(N[C@@H]2CCCN(C(C)C)C2)cc1C [Compound 109, 6-[2-(ethylamino)-4-(trifluoromethyl)phenyl]-N-[(3R)-1-isopropyl-3-piperidyl]-5-methyl-pyridazin-3-amine]
> 6.30	Cc1cc(N[C@@H]2CCCN(C(C)C)C2)nnc1-c1ccc(C(F)(F)F)cc1Nc1ccccc1 [Compound 112, 6-[2-anilino-4-(trifluoromethyl)phenyl]-N-[(3R)-1-isopropyl-3-piperidyl]-5-methyl-pyridazin-3-amine]
> 6.30	Cc1cc(-c2ccc(C(F)(F)F)cc2NC(C)C)nnc1N[C@@H]1CCCN(C(C)C)C1 [Compound 115, 6-[2-(isopropylamino)-4-(trifluoromethyl)phenyl]-N-[(3R)-1-isopropyl-3-piperidyl]-4-methyl-pyridazin-3-amine]
> 6.30	CCN1CCC[C@@H](Nc2cc(C)c(-c3ccc(C(F)(F)F)cc3NC(=O)C(F)(F)F)nn2)C1 [Compound 116, N-[2-[6-[[(3R)-1-ethyl-3-piperidyl]amino]-4-methyl-pyridazin-3-yl]-5-(trifluoromethyl)phenyl]-2,2,2-trifluoro-acetamide]
> 6.30	Cc1cc(-c2ccc(C(F)(F)F)cc2N)nnc1N[C@@H]1CCCN(C(C)C)C1 [Compound 118, 6-[2-amino-4-(trifluoromethyl)phenyl]-N-[(3R)-1-isopropyl-3-piperidyl]-4-methyl-pyridazin-3-amine]
> 6.30	CNc1cc(C(F)(F)F)ccc1-c1cc(C)c(N[C@@H]2CCCN(C(C)C)C2)nn1 [Compound 119, N-[(3R)-1-isopropyl-3-piperidyl]-4-methyl-6-[2-(methylamino)-4-(trifluoromethyl)phenyl]pyridazin-3-amine]
> 6.30	Cc1cc(-c2ccc(C(F)(F)F)cc2NC(=O)C(F)F)nnc1N[C@@H]1CCCN(C(C)C)C1 [Compound 120]
5.30 to 6.00	Cc1cc(N[C@@H]2CCCN(C(C)C)C2)nnc1-c1ccc(C(F)(F)F)cc1NC(=O)C(F)(F)C(F)(F)F [Compound 123, (R)-2,2,3,3,3-Pentafluoro-N-(2-(6-((1-isopropylpiperidin-3-yl)amino)-4-methylpyridazin-3-yl)-5-(trifluoromethyl)phenyl) propanamide]
> 6.30	CCN1CCC[C@@H](Nc2nnc(-c3ccc(C(F)(F)F)cc3N)cc2C)C1 [Compound 131, 6-[2-amino-4-(trifluoromethyl)phenyl]-N-[(3R)-1-ethyl-3-piperidyl]-4-methyl-pyridazin-3-amine]
> 6.30	Cc1cc(N[C@@H]2CCCN(C(C)C)C2)nnc1-c1ccc(C(F)(F)F)cc1NC(=O)C(C)C [Compound 132, (R)—N-(2-(6-((1-Isopropylpiperidin-3-yl)amino)-4-methylpyridazin-3-yl)-5-(trifluoromethyl)phenyl) isobutyramide]
5.30 to 6.00	CC(=O)Nc1cc(C(F)(F)F)ccc1-c1cc(C)c(N[C@@H]2CCCN(C(C)C)C2)nn1 [Compound 137, N-[2-[6-[[(3R)-1-isopropyl-3-piperidyl]amino]-5-methyl-pyridazin-3-yl]-5-(trifluoromethyl)phenyl]acetamide]
5.30 to 6.00	Cc1cc(N[C@@H]2CCCN(C(C)C)C2)nnc1-c1ccc(C(F)(F)F)cc1NC(=O)C(C)(C)C [Compound 138, N-[2-[6-[[(3R)-1-isopropyl-3-piperidyl]amino]-4-methyl-pyridazin-3-yl]-5-(trifluoromethyl)phenyl]-2,2-dimethyl-propanamide]
